As usually defined, the IC50 is the concentration that inhibits the measured activity by half.

Data set [1] deals with influenza (H3N1 Memphis 71). As to conditions: mouse, in vivo.
Data set [2] deals with influenza (H1N1A/PR/8/34). The data set can be described thus: microbe, parasite or virus in culture. Type of data set: cell-based.
Data set [3] concerns the target HCK enzyme (Homo sapiens, UniProt P08631). Briefly: HCK enzyme assay (Z'-LYTE FRET). Format: biochemical. The conditions noted are these: 2 hr pre-incubation, ATP 15 μM.
For data set [4], the target named is p38 MAPKα (MAPK14) (Homo sapiens, UniProt Q16539). Briefly: p38α enzyme assay (Z'-LYTE FRET, via MAPKAP-K2 activation). Format: biochemical. The conditions noted are these: 2 hr pre-incubation, ATP 10 μM.
Data set [5] has as its target c-Src enzyme (Homo sapiens, UniProt P12931). The data set can be described thus: c-Src enzyme assay (Z'-LYTE FRET). Format: biochemical. As to conditions: ATP 200 μM.
Data set [6] relates to MDCK cells. The data set can be described thus: MTT assay (MDCK cells). Type of data set: cell-based, canine. As to conditions: final concentration of 10 μg/mL.
Description: The cells were then washed with 10% FCS DMEM, and incubated in 10% FCS DMEM containing 0.25 mg/mL MTT for 2 hr. The media were then removed, 200 μL of DMSO added to each well and the plates were shaken lightly for 1 hr prior to reading the absorbance at 550 nm.
The mark [7] stands for this setting: Influenza A virus, MDCK, read-out: IC50 (nM) Influenza-Induced CPE.
Setting [8] is: Influenza A virus; MDCK cells, H1N1 A/PR/8/34, MOI 0.1; non-linear regression; read-out: IC50 (nM) Influenza-Induced CPE.
Where [9] appears, read: MDCK; read-out: IC50 (nM) Influenza-Induced CPE.

Marks after values point to notes of the source that are not given here.

c-Src enzyme, sequence (P12931 whole entry): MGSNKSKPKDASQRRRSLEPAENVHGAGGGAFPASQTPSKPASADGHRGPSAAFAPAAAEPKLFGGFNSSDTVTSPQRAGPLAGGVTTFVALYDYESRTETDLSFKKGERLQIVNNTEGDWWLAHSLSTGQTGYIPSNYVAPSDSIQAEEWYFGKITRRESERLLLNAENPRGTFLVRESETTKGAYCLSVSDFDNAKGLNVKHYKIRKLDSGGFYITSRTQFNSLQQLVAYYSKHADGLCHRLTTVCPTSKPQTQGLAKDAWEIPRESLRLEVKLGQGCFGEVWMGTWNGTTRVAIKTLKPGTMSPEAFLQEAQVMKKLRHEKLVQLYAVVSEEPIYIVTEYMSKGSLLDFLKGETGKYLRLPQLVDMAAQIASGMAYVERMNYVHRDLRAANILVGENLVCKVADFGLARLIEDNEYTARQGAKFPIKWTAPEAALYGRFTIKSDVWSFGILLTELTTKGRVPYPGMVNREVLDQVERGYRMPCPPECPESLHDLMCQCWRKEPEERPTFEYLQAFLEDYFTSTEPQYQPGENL
HCK enzyme, sequence (P08631 22-526): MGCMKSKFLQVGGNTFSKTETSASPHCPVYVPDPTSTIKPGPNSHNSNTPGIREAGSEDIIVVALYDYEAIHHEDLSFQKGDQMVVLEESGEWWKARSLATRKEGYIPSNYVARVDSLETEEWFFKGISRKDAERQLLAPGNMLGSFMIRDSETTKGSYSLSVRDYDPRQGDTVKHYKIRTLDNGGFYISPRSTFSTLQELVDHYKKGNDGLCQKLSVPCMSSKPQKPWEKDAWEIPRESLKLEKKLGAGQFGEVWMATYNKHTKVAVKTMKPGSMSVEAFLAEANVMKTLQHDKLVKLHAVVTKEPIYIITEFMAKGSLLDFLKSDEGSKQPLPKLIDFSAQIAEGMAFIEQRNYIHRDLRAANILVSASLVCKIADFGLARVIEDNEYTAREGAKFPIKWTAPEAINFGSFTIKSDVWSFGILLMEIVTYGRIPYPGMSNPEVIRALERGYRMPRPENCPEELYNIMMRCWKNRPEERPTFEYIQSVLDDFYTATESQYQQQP
p38 MAPKα (MAPK14), sequence (Q16539 whole entry): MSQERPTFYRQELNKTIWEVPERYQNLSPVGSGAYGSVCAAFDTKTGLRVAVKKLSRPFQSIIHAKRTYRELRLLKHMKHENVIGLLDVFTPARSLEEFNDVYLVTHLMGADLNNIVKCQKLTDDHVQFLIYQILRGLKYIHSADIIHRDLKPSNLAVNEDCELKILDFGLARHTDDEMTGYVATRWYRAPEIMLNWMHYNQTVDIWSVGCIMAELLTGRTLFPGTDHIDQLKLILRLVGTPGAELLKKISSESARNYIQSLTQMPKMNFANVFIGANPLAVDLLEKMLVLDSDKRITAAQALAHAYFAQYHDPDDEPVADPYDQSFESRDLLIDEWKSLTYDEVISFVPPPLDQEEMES

Consider `COCC(=O)Nc1cc(COc2ccc(NC(=O)Nc3cc(C(C)(C)C)nn3-c3ccc(C)cc3)c3ccccc23)ccn1` [Example 1, N-(4-((4-(3-(3-tert-Butyl-1-p-tolyl-1H-pyrazol-5-yl)ureido)naphthalen-1-yloxy)methyl)pyridin-2-yl)-2-methoxyacetamide], for which, in data set [1], the Lung viral load is 8.1 ± 1.9 pfu/g lung tissue (×10^6) and the “decrease in viral load versus vehicle controls” value is on record as “approximately 80%”. Moreover, the IC50 in data set [2] (setting [7]) turned out to be 6 nM.

For `CNC(=O)Nc1cc(COc2ccc(NC(=O)Nc3cc(C(C)(C)C)nn3-c3ccc(C)cc3)c3ccccc23)ccn1` [Example 2, Methyl 4-((4-(3-(3-tert-butyl-1-p-tolyl-1H-pyrazol-5-yl)ureido)naphthalen-1-yloxy)methyl)pyridin-2-ylurea], the IC50 amounted to 17 nM in data set [3], 2.8 nM in data set [4], 11 nM in data set [2] (setting [8]) and 45 nM in data set [5].

Take `COCCNC(=O)CNC(=O)Nc1cc(COc2ccc(NC(=O)Nc3cc(C(C)(C)C)nn3-c3ccc(C)cc3)c3ccccc23)ccn1` [Example 15, 2-(3-(4-((4-(3-(3-tert-Butyl-1-p-tolyl-1H-pyrazol-5-yl)ureido)naphthalen-1-yloxy)methyl)pyridin-2-yl)ureido)-N-(2-methoxyethyl)acetamide]: the IC50 in data set [3] was 65 nM; in data set [2] (setting [9]) it was greater than 0.2 µg/mL; in data set [5], 28 nM. Also, the “MTT assay 4 hr” value in data set [6] (4 hr) is given as “−ve (<30% = −ve)”. In data set [6] (24 hr), the “MTT assay 24 hr” value is listed as “−ve (<30% = −ve)”.

With `Cc1ccc(-n2nc(C(C)(C)C)cc2NC(=O)Nc2ccc(OCc3ccnc(NC(=O)CCCN(C)C)c3)c3ccccc23)cc1` [Example 16, N-(4-((4-(3-(3-tert-Butyl-1-p-tolyl-1H-pyrazol-5-yl)ureido)naphthalen-1-yloxy)methyl)pyridin-2-yl)-4-(dimethylamino)butanamide], the IC50 in data set [3] worked out at 20 nM; in data set [4] it was 10.3 nM; in data set [2] (setting [8]) it was 166 nM; in data set [5] it was 28 nM.

Consider `Cc1ccc(-n2nc(C(C)(C)C)cc2NC(=O)Nc2ccc(OCc3ccnc(NC(=O)CCS(C)(=O)=O)c3)c3ccccc23)cc1` [Example 17, N-(4-((4-(3-(3-tert-Butyl-1-p-tolyl-1H-pyrazol-5-yl)ureido)naphthalen-1-yloxy)methyl)pyridin-2-yl)-3-(methylsulfonyl)propanamide], for which the IC50 in data set [3] was 60 nM; in data set [4] it was 2.7 nM; in data set [2] (setting [8]) it was 64 nM; in data set [5], 149 nM.

Take `Cc1ccc(-n2nc(C(C)(C)C)cc2NC(=O)Nc2ccc(OCc3ccnc(NC(=O)C[S+](C)[O-])c3)c3ccccc23)cc1` (stereo not shown) [Example 20, N-(4-((4-(3-(3-tert-Butyl-1-p-tolyl-1H-pyrazol-5-yl)ureido)naphthalen-1-yloxy)methyl)pyridin-2-yl)-2-(methylsulfinyl)acetamide]: the IC50 in data set [3] stood at 176 nM; in data set [2] (setting [7]), 486 nM; in data set [5] it was 161 nM.

For `Cc1ccc(-n2nc(C(C)(C)C)cc2NC(=O)Nc2ccc(OCc3ccnc(NC(=O)CS(=O)(=O)CCN4CCOCC4)c3)c3ccccc23)cc1` [Example 32, N-(4-((4-(3-(3-tert-Butyl-1-p-tolyl-1H-pyrazol-5-yl)ureido)naphthalen-1-yloxy)methyl)pyridin-2-yl)-2-(2-morpholinoethylsulfonyl)acetamide], the half-maximal inhibitory concentration (IC50) was 183 nM in data set [3], 1 nM in data set [4], greater than 0.04 µg/mL in data set [2] (setting [9]) and 111 nM in data set [5].

As for `CNC(=O)Nc1cnccc1COc1ccc(NC(=O)Nc2cc(C(C)(C)C)nn2-c2ccc(C)cc2)c2ccccc12` [Example 34, 1-(4-((3-Methylureidopyridin-4-yl)methoxy)naphthalen-1-yl)-3-(3-tert-butyl-1-p-tolyl-1H-pyrazol-5-yl)urea], the values for the IC50 in data set [3], in data set [2] (setting [9]) and in data set [5] were 742 nM, greater than 0.2 µg/mL and greater than 17300 nM, respectively.

`COCCOCC(=O)Nc1cnccc1COc1ccc(NC(=O)Nc2cc(C(C)(C)C)nn2-c2ccc(C)cc2)c2ccccc12` [Example 36, N-(4-((4-(3-(3-tert-Butyl-1-p-tolyl-1H-pyrazol-5-yl)ureido)naphthalen-1-yloxy)methyl)pyridin-3-yl)-2-(2-methoxyethoxy)acetamide]: the IC50 in data set [3] was greater than 1570 nM; in data set [2] (MDCK, read-out: IC50 (nM) Influenza-Induced CPE), greater than 0.2 µg/mL; in data set [5], 9330 nM.

Take `Cc1ccc(-n2nc(C(C)(C)C)cc2NC(=O)Nc2ccc(OCCc3ccnc(NC(N)=O)c3)c3ccccc23)cc1` [Example 40, 4-(2-(4-(3-(3-tert-Butyl-1-p-tolyl-1H-pyrazol-5-yl)ureido)naphthalen-1-yloxy)ethyl)-3-(pyridin-2-yl)urea]: the IC50 is 276 nM in data set [3], 97 nM in data set [2] (setting [7]) and greater than 17300 nM in data set [5].

On to `COCC(=O)Nc1cc(COc2ccc(NC(=O)Nc3cc(C(C)(C)C)nn3-c3ccc(CO)cc3)c3ccccc23)ccn1` [Example 49, N-(4-((4-(3-(3-tert-Butyl-1-(4-(hydroxymethyl)phenyl)-1H-pyrazol-5-yl)ureido)naphthalen-1-yloxy)methyl)pyridin-2-yl)-2-methoxyacetamide], for which the IC50 worked out at 24 nM in data set [3], 5 nM in data set [4], 32 nM in data set [2] (setting [8]) and 155 nM in data set [5].
